Assay results as given in patent US20220339187A1, “ANTIMICROBIAL PEPTIDE-SELENIUM NANOPARTICLES” (The University of Melbourne, priority 2019, published 2022).

How the values were obtained:
[1] = system: mice; conditions: dosage of 5 g/kg; cited from earlier work
[2] = system: Escherichia coli (E. coli) ATCC 25922; assay: Bacterial growth inhibition test / MIC calculation; type: cell-based; conditions: MHB, 37° C., growth curves, linear regression, mean ± s.d.
Excerpt: The bacterial strains methicillin-sensitive Staphylococcus aureus (S. aureus) ATCC 29213, methicillin-resistant Staphylococcus aureus (MRSA) ATCC 43300, Enterococcus faecalis (E. faecalis) ATCC 29212, Escherichia coli (E. coli) ATCC 25922, Acinetobacter baumannii (A. baumannii) 2208 ATCC19606, Pseudomonas aeruginosa (P. aeruginosa) strain PAO1-LAC ATCC 47085, Klebsiella pneumoniae (K. pneumoniae) ATCC 13883 and multidrug-resistant K. pneumoniae (MDR), were obtained from the culture collection of the Oral Health Cooperative Research Centre, The Melbourne Dental School, University of Melbourne, Australia. Bacteria were cultured in Mueller Hinton Broth (MHB) at 37° C. 50 μL of suspensions with the desired concentrations of Se NPs, Se NP-ε-PL or pure ε-PL in PBS solution was added to each well of 96-well microplates, then 50 μL MHB with 2.5×10^6 bacteria/mL were added into each well. The plate was put into an iEMS microplate reader (Pathtech Pty Ltd, Melbourne, Australia) at a temperature of 37° C. to monitor bacterial growth by measuring the absorbance at wavelength of 630 nm for 24 h. Background absorbance values due to the Se NP solutions were subtracted from the measured absorbance values.
The absorbance values from bacteria growth curves at the time when the stationary phase starts (tsps) were taken and calculated as a percentage of the untreated control (Z=OD5/OD6×100%, where OD5 represents absorbance at tsps of experimental groups and OD6 represents the absorbance at tsps of the negative control group; all absorbance values had the culture medium background values subtracted). Concentration-inhibition curves were plotted with the percentages of absorbance, and linear regression analysis was adopted to determine the MIC at which Z becomes zero.

[3] = system: E. faecalis ATCC 29212; assay: Helium ion microscopy (HIM) of treated bacteria; type: cell-based, Enterococcus faecalis; conditions: 90 min incubation
Experimental: (§1) The morphologies of bacterial strains methicillin-sensitive S. aureus (MSSA) ATCC 29213, E. faecalis ATCC 29212, E. coli ATCC 25922, A. baumannii 2208 ATCC19606 and K. pneumoniae ATCC 13883 after treatment with Se NPs, Se NP-ε-PL or pure ε-PL were observed using Helium Ion Microscopy (HIM, Zeiss, Germany). The samples were prepared in the following steps. First, 100 μL of 125 μg/mL Se NPs, Se NP-ε-PL or pure ε-PL in PBS solution was added to each well of 96-well microplates, 100 μL pure PBS was used as untreated control. Afterwards, 100 μL MHB with 1.25×10^7/mL bacteria was added to each well. After 90 min incubation, 10 μL of both treated and untreated bacteria was dropped on clean silicon wafers, and they were then dried at 37° C. for 20 min. The dried samples were transferred to a 12-well plate, 2.5% glutaraldehyde was added to each well to fix the bacteria cells for 1 h, then gradient ethanol solution (30%, 50%, 60%, 70%, 80%, 90%, 95% and 100%) was used for dehydration. The prepared samples were dried in the fume hood overnight before use.

[4] = system: K. pneumoniae ATCC 13883; assay: Adenosine triphosphate (ATP) test (BacTiter-Glo); type: cell-based, Klebsiella pneumoniae; conditions: 1 h at 37° C.
Experimental: (§2) The bacterial strains methicillin-sensitive S. aureus ATCC 29213, E. faecalis ATCC 29212, E. coli ATCC 25922 and K. pneumoniae ATCC 13883 were cultured in MHB at 37° C. 50 μL of Se NPs, Se NP-ε-PL or pure ε-PL in PBS solution was added into each well of 96-well microplates. 50 μL MHB with 2.5×10^6 cells/mL bacteria was then added into each well. After 1h incubation at 37° C., the 96-well microplates were transferred to room temperature for a further 30 min incubation period. 100 μL of BacTiter-Glo™ reagent (Promega, Australia) was added into each well, then mixed on an orbital shaker and incubated for 5 min. The luminescence was recorded using a microplate reader (PerkinElmer 1420 Multilabel Counter VICTOR3).
(§3) A standard curve was generated by adopting the following steps. 10-fold serial dilutions of ATP from 1 μM to 10 pM in 100 μL MHB were prepared. 100 μL of BacTiter-Glo™ reagent was added into each well, then mixed on an orbital shaker and incubated for 1 min. The luminescence was recorded using a microplate reader (PerkinElmer 1420 Multilabel Counter VICTOR3).

[5] = system: human dermal fibroblast cells (HDF); assay: Cell Counting Kit-8 (CCK-8) cytotoxicity assay; type: cell-based; conditions: all tested concentrations (1-50 μg/mL), 24 h
Experimental: Two methods were adopted to test the cytotoxicity of Se NP-ε-PL, namely the Cell Counting Kit-8 (CCK-8) assay and Lactate Dehydrogenase (LDH) assay.
Cytotoxicity of Se NPs, Se NP-ε-PL and pure ε-PL was tested using human dermal fibroblast cells (HDF). HDF were cultured in Dulbecco's modified Eagle's medium (DMEM) with 10% foetal bovine serum (FBS), 100 U·mL^−1 penicillin and 100 μg·mL^−1 streptomycin at 37° C. in a humidified atmosphere of 5% CO2. For the CCK-8 tests, filter sterilised Se NPs, Se NP-ε-PL and pure ε-PL in PBS suspensions were diluted in PBS to concentrations of 20, 50, 100, 200, 500 and 1000 μg/mL and 5% (v/v) of these diluted solutions were added to DMEM to give final concentrations of Se NPs of 1, 2.5, 5, 10, 25 and 50 μg/mL The control groups involved DMEM as the negative control and DMEM with 10% dimethyl sulfoxide (DMSO) as the positive control, according to ISO 10993-12 standard. […] 100 μL medium from each well was then transferred to new 96-well plates and the absorbance of each well was tested using a microplate reader (M200 PRO, Tecan) at a wavelength of 450 nm. The cell viability (X) of each experimental group was calculated based on 5 samples according the following formula: […]
where OD1 represents the mean absorbance of experimental groups and the positive control group and OD2 represents the mean absorbance of the negative control group.

[6] = system: E. coli ATCC 25922; assay: Adenosine triphosphate (ATP) test (BacTiter-Glo); type: cell-based, Escherichia coli; conditions: 1 h at 37° C.
Experimental: as §2, §3

[7] = system: Gram-negative cells (E. coli, A. baumannii and K. pneumoniae); assay: Helium ion microscopy (HIM) of treated bacteria; type: cell-based; conditions: 90 min incubation
Experimental: as §1

Substance: ε-poly-L-lysine [ε-PL]
- mortality, acute oral toxicity [1]: no mortality
- MIC [2]: 13.2 ± 0.5 mg/L
- cell morphology after treatment (HIM) [3]: some were dead and distorted
- ATP depletion [4]: higher ATP depletion effect than Se NPs
- toxicity to HDF cells (cell viability, CCK-8) [5]: no significant toxicity
- ATP depletion [6]: higher ATP depletion effect than Se NPs
- cell morphology after treatment (HIM) [7]: membranes of E. coli, A. baumannii and K. pneumoniae cells were disrupted
